# Laboratory results taken from ChEMBL document CHEMBL1147333, “Brominated indole alkaloids from the marine tunicate Pseudodistoma arborescens” (J Nat Prod, 1993).
# System: KB
# Assay: Cytotoxicity against human KB cells
# Format: functional, cell-based
smiles,measurement,value
CN1CCc2c3n(c4cc(Br)ccc24)[C@H](O)CCC[C@@H]31 [ARBORESCIDINE D],IC50,3 µg/mL
